Test results as given in patent publication US6054435A, “6-O-substituted macrolides having antibacterial activity” (priority 1999, dated 2000).
≈ marks a conversion by molar mass, not a printed value.

Legend:
Experiment in all cases: in vitro antibacterial activity (MIC), agar dilution
Format in all cases: cell-based
[1] = test system: Candida albicans CCH 442; details: organism code TT; BHI agar, 35-37° C., 20 to 24 hours; unit assumed
How it was run: (§1)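 Antibacterial MIC determined by agar dilution in BHI agar with twelve successive concentrations; controls comprised compound-free plates and a same-class reference antibiotic. MIC: lowest concentration giving no growth, slight haze or sparsely isolated colonies.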

[2] = test system: Enterococcus faecium ATCC 8043; details: organism code II; BHI agar, 35-37° C., 20 to 24 hours; unit assumed
How it was run: as §1

[3] = test system: Escherichia coli DC-2; details: organism code SS; BHI agar, 35-37° C., 20 to 24 hours; unit assumed
How it was run: as §1

[4] = test system: Escherichia coli JUHL; details: organism code QQ; BHI agar, 35-37° C., 20 to 24 hours; unit assumed
How it was run: as §1

[5] = test system: Escherichia coli SS; details: organism code RR; BHI agar, 35-37° C., 20 to 24 hours; unit assumed
How it was run: as §1

[6] = test system: Haemophilis Influenzae DILL AMP R; details: organism code WW; BHI agar, 35-37° C., 20 to 24 hours; unit assumed
How it was run: as §1

[7] = test system: Micrococcus luteus ATCC 4698; details: organism code PP; BHI agar, 35-37° C., 20 to 24 hours; unit assumed
How it was run: (§2)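 Endpoint: lowest concentration with no growth, slight haze or sparsely isolated colonies at the inoculum spot, judged against a compound-free BHI control. Strains were replicator-inoculated at 1:100 (1:10 for Streptococcus and other slow growers).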

[8] = test system: Micrococcus luteus ATCC 9341; details: organism code OO; BHI agar, 35-37° C., 20 to 24 hours; unit assumed
How it was run: as §2

[9] = test system: Mycobacterium smegmatis ATCC 114; details: organism code UU; BHI agar, 35-37° C., 20 to 24 hours; unit assumed
How it was run: as §1

[10] = test system: Nocardia Asteroides ATCC9970; details: organism code VV; BHI agar, 35-37° C., 20 to 24 hours; unit assumed
How it was run: as §1

[11] = test system: Staphylococcus aureus 1775; details: organism code GG; BHI agar, 35-37° C., 20 to 24 hours; unit assumed
How it was run: as §1

[12] = test system: Staphylococcus aureus A-5278; details: organism code CC; BHI agar, 35-37° C., 20 to 24 hours; unit assumed
How it was run: as §1

[13] = test system: Staphylococcus aureus A5177; details: organism code BB; BHI agar, 35-37° C., 20 to 24 hours; unit assumed
How it was run: as §1

[14] = test system: Staphylococcus aureus ATCC 6538P; details: organism code AA; BHI agar, 35-37° C., 20 to 24 hours; unit assumed
How it was run: as §1

[15] = test system: Staphylococcus aureus CMX 553; details: organism code FF; BHI agar, 35-37° C., 20 to 24 hours; unit assumed
How it was run: as §1

[16] = test system: Staphylococcus aureus CMX 642A; details: organism code DD; BHI agar, 35-37° C., 20 to 24 hours; unit assumed
How it was run: as §1

[17] = test system: Staphylococcus aureus NCTC10649M; details: organism code EE; BHI agar, 35-37° C., 20 to 24 hours; unit assumed
How it was run: as §1

[18] = test system: Staphylococcus epidermidis 3519; details: organism code HH; BHI agar, 35-37° C., 20 to 24 hours; unit assumed
How it was run: as §1

[19] = test system: Streptococcus Pneumonia 5649; details: organism code ZZA; BHI agar, 35-37° C., 20 to 24 hours; unit assumed
How it was run: as §1

[20] = test system: Streptococcus Pneumonia 5979; details: organism code ZZ; BHI agar, 35-37° C., 20 to 24 hours; unit assumed
How it was run: as §1

[21] = test system: Streptococcus Pneumonia ATCC6303; details: organism code XX; BHI agar, 35-37° C., 20 to 24 hours; unit assumed
How it was run: as §1

[22] = test system: Streptococcus Pneumonia GYR 1171; details: organism code YY; BHI agar, 35-37° C., 20 to 24 hours; unit assumed
How it was run: as §1

[23] = test system: Streptococcus agalactiae CMX 508; details: organism code KK; BHI agar, 35-37° C., 20 to 24 hours; unit assumed
How it was run: as §1

[24] = test system: Streptococcus bovis A-5169; details: organism code JJ; BHI agar, 35-37° C., 20 to 24 hours; unit assumed
How it was run: as §1

[25] = test system: Streptococcus pyogenes 930; details: organism code MM; BHI agar, 35-37° C., 20 to 24 hours; unit assumed
How it was run: as §1

[26] = test system: Streptococcus pyogenes EES61; details: organism code LL; BHI agar, 35-37° C., 20 to 24 hours; unit assumed
How it was run: as §1

[27] = test system: Streptococcus pyogenes PIU 2548; details: organism code NN; BHI agar, 35-37° C., 20 to 24 hours; unit assumed
How it was run: as §1

SMILES | MIC [1] | MIC [2] | MIC [3] | MIC [4] | MIC [5] | MIC [6] | MIC [7] | MIC [8] | MIC [9] | MIC [10] | MIC [12] | MIC [13] | MIC [14] | MIC [15] | MIC [16] | MIC [17] | MIC [18] | MIC [19] | MIC [20] | MIC [21] | further results
CC[C@H]1OC(=O)[C@H](C)C(=O)[C@H](C)[C@@H](O[C@@H]2O[C@H](C)C[C@H](N(C)C)[C@H]2O)[C@](C)(OCC#Cc2ccc(-c3cncnc3)s2)C[C@@H](C)C(=O)[C@H](C)[C@H]2NC(=O)O[C@@]21C [Example 4] | > 100 µg/mL | 0.02 µg/mL (≈ 0.0251 µM) | 50 µg/mL (≈ 62.7 µM) | 50 µg/mL (≈ 62.7 µM) | 0.39 µg/mL (≈ 0.489 µM) | 2 µg/mL (≈ 2.51 µM) | 0.05 µg/mL (≈ 0.0627 µM) | 0.01 µg/mL (≈ 0.0125 µM) | 0.78 µg/mL (≈ 0.979 µM) | 0.02 µg/mL (≈ 0.0251 µM) | > 100 µg/mL | 0.1 µg/mL (≈ 0.125 µM) | 0.1 µg/mL (≈ 0.125 µM) | 0.1 µg/mL (≈ 0.125 µM) | 0.1 µg/mL (≈ 0.125 µM) | 0.1 µg/mL (≈ 0.125 µM) | 0.1 µg/mL (≈ 0.125 µM) | 0.5 µg/mL (≈ 0.627 µM) | 2 µg/mL (≈ 2.51 µM) | 0.03 µg/mL (≈ 0.0376 µM) | MIC [11]: > 100 µg/mL; MIC [22]: 0.03 µg/mL (≈ 0.0376 µM); MIC [23]: 0.01 µg/mL (≈ 0.0125 µM); MIC [24]: ≤ 0.005 µg/mL; MIC [25]: 12.5 µg/mL (≈ 15.7 µM); MIC [26]: 0.01 µg/mL (≈ 0.0125 µM); MIC [27]: 0.1 µg/mL (≈ 0.125 µM)
CC[C@H]1OC(=O)[C@H](C)C(=O)[C@H](C)[C@@H](O[C@@H]2O[C@H](C)C[C@H](N(C)C)[C@H]2O)[C@](C)(OCC#Cc2ccc(-c3ncccn3)s2)C[C@@H](C)C(=O)[C@H](C)[C@H]2NC(=O)O[C@@]21C [Example 5] | > 100 µg/mL | 0.02 µg/mL (≈ 0.0251 µM) | 25 µg/mL (≈ 31.4 µM) | 25 µg/mL (≈ 31.4 µM) | 0.1 µg/mL (≈ 0.125 µM) | 2 µg/mL (≈ 2.51 µM) | 0.1 µg/mL (≈ 0.125 µM) | 0.01 µg/mL (≈ 0.0125 µM) | 0.78 µg/mL (≈ 0.979 µM) | 0.01 µg/mL (≈ 0.0125 µM) | > 100 µg/mL | 0.05 µg/mL (≈ 0.0627 µM) | 0.02 µg/mL (≈ 0.0251 µM) | 0.02 µg/mL (≈ 0.0251 µM) | 0.05 µg/mL (≈ 0.0627 µM) | 0.05 µg/mL (≈ 0.0627 µM) | 0.05 µg/mL (≈ 0.0627 µM) | 0.25 µg/mL (≈ 0.314 µM) | 0.5 µg/mL (≈ 0.627 µM) | 0.03 µg/mL (≈ 0.0376 µM) | MIC [11]: > 100 µg/mL; MIC [22]: 0.03 µg/mL (≈ 0.0376 µM); MIC [23]: 0.01 µg/mL (≈ 0.0125 µM); MIC [24]: ≤ 0.005 µg/mL; MIC [25]: 25 µg/mL (≈ 31.4 µM); MIC [26]: ≤ 0.005 µg/mL; MIC [27]: 0.1 µg/mL (≈ 0.125 µM)
CC[C@H]1OC(=O)[C@H](C)C(=O)[C@H](C)[C@@H](O[C@@H]2O[C@H](C)C[C@H](N(C)C)[C@H]2O)[C@](C)(OCC#Cc2ccc(-c3cncc(C#N)c3)s2)C[C@@H](C)C(=O)[C@H](C)[C@H]2NC(=O)O[C@@]21C [Example 8] | > 100 µg/mL | 0.02 µg/mL (≈ 0.0244 µM) | > 100 µg/mL | 50 µg/mL (≈ 60.9 µM) | 0.2 µg/mL (≈ 0.244 µM) | 4 µg/mL (≈ 4.87 µM) | 0.05 µg/mL (≈ 0.0609 µM) | ≤ 0.005 µg/mL | 0.78 µg/mL (≈ 0.95 µM) | 0.01 µg/mL (≈ 0.0122 µM) | > 100 µg/mL | 0.05 µg/mL (≈ 0.0609 µM) | 0.05 µg/mL (≈ 0.0609 µM) | 0.02 µg/mL (≈ 0.0244 µM) | 0.05 µg/mL (≈ 0.0609 µM) | 0.02 µg/mL (≈ 0.0244 µM) | 0.05 µg/mL (≈ 0.0609 µM) | ≤ 0.004 µg/mL | 0.25 µg/mL (≈ 0.305 µM) | ≤ 0.004 µg/mL | MIC [11]: > 100 µg/mL; MIC [22]: ≤ 0.004 µg/mL; MIC [23]: 0.01 µg/mL (≈ 0.0122 µM); MIC [24]: ≤ 0.005 µg/mL; MIC [25]: 0.2 µg/mL (≈ 0.244 µM); MIC [26]: ≤ 0.005 µg/mL; MIC [27]: 0.1 µg/mL (≈ 0.122 µM)
CC[C@H]1OC(=O)[C@H](C)C(=O)[C@H](C)[C@@H](O[C@@H]2O[C@H](C)C[C@H](N(C)C)[C@H]2O)[C@](C)(OCC#Cc2ccc(-c3ccsc3)s2)C[C@@H](C)C(=O)[C@H](C)[C@H]2NC(=O)O[C@@]21C [Example 27] | > 100 µg/mL | 0.01 µg/mL (≈ 0.0125 µM) | 100 µg/mL (≈ 125 µM) | 100 µg/mL (≈ 125 µM) | 0.2 µg/mL (≈ 0.25 µM) | 2 µg/mL (≈ 2.5 µM) | 0.05 µg/mL (≈ 0.0624 µM) | ≤ 0.005 µg/mL | 0.2 µg/mL (≈ 0.25 µM) | 0.01 µg/mL (≈ 0.0125 µM) | 100 µg/mL (≈ 125 µM) | 0.05 µg/mL (≈ 0.0624 µM) | 0.05 µg/mL (≈ 0.0624 µM) | 0.05 µg/mL (≈ 0.0624 µM) | 0.05 µg/mL (≈ 0.0624 µM) | 0.05 µg/mL (≈ 0.0624 µM) | 0.05 µg/mL (≈ 0.0624 µM) | 0.25 µg/mL (≈ 0.312 µM) | 4 µg/mL (≈ 4.99 µM) | 0.015 µg/mL (≈ 0.0187 µM) | MIC [22]: 0.015 µg/mL (≈ 0.0187 µM); MIC [23]: ≤ 0.005 µg/mL; MIC [24]: ≤ 0.005 µg/mL; MIC [25]: 6.2 µg/mL (≈ 7.74 µM); MIC [26]: ≤ 0.005 µg/mL; MIC [27]: 0.1 µg/mL (≈ 0.125 µM)
CC[C@H]1OC(=O)[C@H](C)C(=O)[C@H](C)[C@@H](O[C@@H]2O[C@H](C)C[C@H](N(C)C)[C@H]2O)[C@](C)(OC/C=C/c2ccc(-c3cccc(F)c3)s2)C[C@@H](C)C(=O)[C@H](C)[C@H]2NC(=O)O[C@@]21C [Example 72] | > 100 µg/mL | 0.05 µg/mL (≈ 0.0613 µM) | > 100 µg/mL | > 100 µg/mL | 1.56 µg/mL (≈ 1.91 µM) | 8 µg/mL (≈ 9.82 µM) | 0.05 µg/mL (≈ 0.0613 µM) | 0.02 µg/mL (≈ 0.0245 µM) | 1.56 µg/mL (≈ 1.91 µM) | 0.39 µg/mL (≈ 0.479 µM) | 25 µg/mL (≈ 30.7 µM) | 0.2 µg/mL (≈ 0.245 µM) | 0.2 µg/mL (≈ 0.245 µM) | 0.2 µg/mL (≈ 0.245 µM) | 0.2 µg/mL (≈ 0.245 µM) | 0.2 µg/mL (≈ 0.245 µM) | 0.2 µg/mL (≈ 0.245 µM) | 1 µg/mL (≈ 1.23 µM) | 4 µg/mL (≈ 4.91 µM) | 0.125 µg/mL (≈ 0.153 µM) | MIC [11]: 25 µg/mL (≈ 30.7 µM); MIC [22]: 0.125 µg/mL (≈ 0.153 µM); MIC [23]: 0.01 µg/mL (≈ 0.0123 µM); MIC [24]: ≤ 0.005 µg/mL; MIC [25]: 12.5 µg/mL (≈ 15.3 µM); MIC [27]: 0.39 µg/mL (≈ 0.479 µM)
